The record followed here is ChEMBL document CHEMBL3044551, “Synthesis of optically active N-(2-pyridyloxiran-2-ylmethyl) benzenesulfonamide derivatives and their herbicidal activity” (Biosci Biotechnol Biochem, 2001).

For series [1], the system named is Echinochloa oryzicola. Nature of the series: Herbicidal activity against germinated Echinochloa oryzicola assessed as inhibition of above-ground shoot length growth after 7 days post compound treatment by petri dish test. The class given is functional. To be noted: for EC50: 168 h, read-out: ED50 (the source's name).
In series [2] the test system is Oryza sativa. Kind of series: Toxicity in two-leaf stage Oryza sativa (rice) plants exposed to compound 3 days post transplantation assessed as phytotoxicity scores at 0.5 kg ai/ha measured 2 weeks post compound treatment. The class given is organism-based. To be noted: in vivo, 336 h.
The subject of series [3] is Schoenoplectiella juncoides. Nature of the series: Herbicidal activity against Schoenoplectiella juncoides exposed to compound at 1.5 to two-leaf stage assessed as herbicidal rate scores at 0.5 kg ai/ha measured 2 weeks post compound treatment by pot test. The class given is functional.
The test system of series [4] is Echinochloa oryzicola. Nature of the series: Herbicidal activity against Echinochloa oryzicola exposed to compound at 1.5 to two-leaf stage assessed as herbicidal rate scores at 0.5 kg ai/ha measured 2 weeks post compound treatment by pot test. In kind it is functional.
For another series, the system named is Cyperus serotinus. Kind of series: Herbicidal activity against Cyperus serotinus exposed to compound at 1.5 to 2 leaf stage assessed as herbicidal rate scores at 0.5 kg ai/ha measured 2 weeks post compound treatment by pot test. The class given is functional.
In a further series the test system is Rotala indica. Nature of the series: Herbicidal activity against Rotala indica exposed to compound at 1.5 to 2 leaf stage assessed as herbicidal rate scores at 0.5 kg ai/ha measured 2 weeks post compound treatment by pot test. The class given is functional.
The test system of series [5] is Oryza sativa. Nature of the series: Toxicity in direct seeded Oryza sativa (rice) plants assessed as phytotoxicity scores at 0.5 kg ai/ha measured 2 weeks post compound treatment. In kind it is organism-based. To be noted: in vivo, 336 h.

The structures appear in SMILES notation. ≈ marks a conversion by molar mass, not a printed value. Calls of active or inactive are those of the source. The rule behind the calls is not given here.

In the case of `Cc1cc(S(=O)(=O)N(C)C[C@@]2(c3cccc(Cl)n3)CO2)ccc1Cl`, the ED50 entry with Echinochloa oryzicola [1] was “inactive”. The Activity in the series on Oryza sativa [2] was 0; in series [3], 0; in the series with Echinochloa oryzicola [4] it was 1; with Cyperus serotinus, 2; in the series with Rotala indica, 2; in the series with Oryza sativa [5], 0.
As for `Cc1cc(S(=O)(=O)N(C)C[C@]2(c3cccc(Cl)n3)CO2)ccc1Cl`, the EC50 with Echinochloa oryzicola [1] was 0.035 µg/mL (≈ 0.0904 µM). The Activity was 1 with Oryza sativa [2]; 7 in series [3]; 10 with Echinochloa oryzicola [4]; 10 in the series with Cyperus serotinus; 10 in the series on Rotala indica; 10 with Oryza sativa [5].
Take `Cc1cc(S(=O)(=O)N(C)CC2(c3cccc(Cl)n3)CO2)ccc1Cl` (racemic): the EC50 with Echinochloa oryzicola [1] came to 0.07 µg/mL (≈ 0.181 µM). Besides, the Activity with Oryza sativa [2] is reported as 0; in series [3] it was 4; in the series on Echinochloa oryzicola [4], 10; with Cyperus serotinus, 9; in the series on Rotala indica it was 9; in the series on Oryza sativa [5], 10.
On to `CN(C[C@@]1(c2cccc(Cl)n2)CO1)S(=O)(=O)c1ccc2c(c1)CCCC2`, for which the ED50 entry with Echinochloa oryzicola [1] is “inactive”. In addition, the Activity (with Oryza sativa [2]; in series [3]; with Echinochloa oryzicola [4]; with Cyperus serotinus; in the series on Rotala indica; in the series on Oryza sativa [5]) was 0 in each case.
Take `CN(C[C@]1(c2cccc(Cl)n2)CO1)S(=O)(=O)c1ccc2c(c1)CCCC2`: the EC50 with Echinochloa oryzicola [1] is 0.05 µg/mL (≈ 0.127 µM). Further, the Activity in the series with Oryza sativa [2] is 0; in series [3], 3; with Echinochloa oryzicola [4], 9; in the series on Cyperus serotinus, 9; with Rotala indica it was 10; in the series with Oryza sativa [5], 1.
On to `CN(CC1(c2cccc(Cl)n2)CO1)S(=O)(=O)c1ccc2c(c1)CCCC2` (racemic), for which the EC50 in the series on Echinochloa oryzicola [1] worked out at 0.11 µg/mL (≈ 0.28 µM). In addition, the Activity amounted to 0 with Oryza sativa [2]; 2 in series [3]; 8 in the series on Echinochloa oryzicola [4]; 8 in the series with Cyperus serotinus; 10 with Rotala indica; 0 in the series on Oryza sativa [5].
